# Results taken from patent US20250197387A1, “BCL-XL DEGRADERS AND USES THEREOF” (Kymera Therapeutics, Inc., priority 2021, published 2025).
# Read-outs that look alike come from different tables or passages of the source.
# How the values were obtained:
# MOLT-4 cells = assay: CTG (CellTiter-Glo) cell viability assay, MOLT-4; assay type: cell-based; conditions: Homo sapiens, 3 day incubation, read-out: CTG Cell Viability Assay - MOLT-4 3 day: Average external-IC50
# Outline: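 MOLT-4 and Caki-2 cells were seeded at 10,000 per well and treated with a 9-point, 1:3 dilution series from 10 μM top concentration (0.2% DMSO). After 3 days at 37 °C, 5% CO2, viability was read by CellTiter-Glo luminescence and IC50 fitted by three-parameter logistic.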
# Caki-2 cells = assay: CTG (CellTiter-Glo) cell viability assay, Caki-2; assay type: cell-based; conditions: Homo sapiens, 72 h, 3 day incubation, read-out: CTG Chempartner - Caki-2 3 day: Average external-IC50
# Procedure: Compound-mediated viability effect on MOLT-4 and Caki-2 was quantitatively determined using the CellTiter-Glo® Luminescent Cell Viability Assay kit from Promega (Catalog number G7570) following manufacturer's recommended procedures. Briefly, MOLT-4 and Caki-2 cells were seeded into 384 well plates (Grenier Bio-One, Catalog number 781080) with a density of 10,000 cells per well. Compounds were then added to the assay plate with final top concentration of 10 μM and 1:3 dilution series with total of 9 doses. The final DMSO concentration is normalized to 0.2%. The assay plates were incubated at 37° C., for 3 days under 5% CO2. Then the assay plate was equilibrated at room temperature for 10 minutes. To determine cell viability, 30 uL CellTiter Glo reagent was added to each well and the assay plate was centrifuged at 1000 rpm for 30 second, incubated at room temperature for 10 min, and analyzed by detecting the luminescence using a multimode plate reader (EnVision 2105, PerkinElmer). The data was then analyzed by software Prism 7.0 from GraphPad and the dose response curves are fit using a three-parameter logistic equation to calculate IC50.
# The letter codes for MOLT-4 IC50 include: A (<0.1 μM); B (0.1-1.0 μM); C (>1.0-3.0 μM); and D (>3.0 μM). The letter codes for Caki-2 IC50 include: A (<0.1 μM); B (0.1-1.0 μM); C (>1.0-10.0 μM); and D (>10.0 μM).
SMILES,"IC50 (MOLT-4 cells; MOLT-4, 72 h)",IC50 (Caki-2 cells),IC50 (MOLT-4 cells; 72 h)
Cc1ncsc1-c1ccc([C@H](C)NC(=O)[C@@H]2C[C@@H](OC(=O)CCP(=O)(O)O)CN2C(=O)[C@@H](NC(=O)CCCS(=O)(=O)NC(=O)c2nc(N3CCc4cccc(C(=O)Nc5nc6ccccc6s5)c4C3)ccc2-c2cnn(CC3CCCCC3)c2C)C(C)(C)C)cc1 [I-411],–,> 10000 nM,100 to 1000 nM
C#Cc1ccc(CNC(=O)[C@@H]2C[C@@H](O)CN2C(=O)[C@@H](NC(=O)CCCS(=O)(=O)NC(=O)c2nc(N3CCc4cccc(C(=O)Nc5nc6cccnc6s5)c4C3)ccc2-c2cnn(CC(C)C)c2C)C(C)(C)C)cc1 [I-412],> 3000 nM,> 10000 nM,–
Cc1cc(N(C)c2ccc(-c3cnn(CC45CC6CC(CC(C6)C4)C5)c3C)c(C(=O)NS(=O)(=O)CCNCCC(=O)N[C@H](C(=O)N3C[C@H](O)C[C@H]3C(=O)N[C@@H](C)c3ccc(-c4scnc4C)cc3)C(C)(C)C)n2)nnc1Nc1nc2ccccc2s1 [I-427],100 to 1000 nM,> 10000 nM,–
C#Cc1ccc(CNC(=O)[C@@H]2C[C@@H](O)CN2C(=O)[C@@H](NC(=O)CCNCCS(=O)(=O)NC(=O)c2nc(N(C)c3cc(C)c(Nc4nc5ccccc5s4)nn3)ccc2-c2cnn(CC34CC5CC(CC(C5)C3)C4)c2C)C(C)(C)C)c(OCCO)c1 [I-431],100 to 1000 nM,> 10000 nM,–
Cc1cc(N(C)c2ccc(-c3cnn(CC45CC6CC(CC(C6)C4)C5)c3C)c(C(=O)NS(=O)(=O)CCN3CC(C(=O)N[C@H](C(=O)N4C[C@H](O)C[C@H]4C(=O)N[C@@H](C)c4ccc(-c5scnc5C)cc4)C(C)(C)C)C3)n2)nnc1Nc1nc2ccccc2s1 [I-432],1000 to 3000 nM,> 10000 nM,–
Cc1cc(N2CC(C(=O)N[C@H](C(=O)N3C[C@H](O)C[C@H]3C(=O)NCc3ccc(-c4scnc4C)cc3)C(C)(C)C)C2)ccc1S(=O)(=O)NC(=O)c1nc(N(C)c2cc(C)c(Nc3nc4ccccc4s3)nn2)ccc1-c1cnn(CC23CC4CC(CC(C4)C2)C3)c1C [I-435],< 100 nM,> 10000 nM,–
Cc1cc(N(C)c2ccc(-c3cnn(CC45CC6CC(CC(C6)C4)C5)c3C)c(C(=O)NS(=O)(=O)CCCCCC(=O)N[C@H](C(=O)N3C[C@H](O)C[C@H]3C(=O)N[C@@H](C)c3ccc(-c4scnc4C)cc3)C(C)(C)C)n2)nnc1Nc1nc2cccnc2s1 [I-439],100 to 1000 nM,> 10000 nM,–
Cc1cc(N(C)c2ccc(-c3cnn(CC45CC6CC(CC(C6)C4)C5)c3C)c(C(=O)NS(=O)(=O)CCCN(C)CC(=O)N[C@H](C(=O)N3C[C@H](O)C[C@H]3C(=O)N[C@@H](C)c3ccc(-c4scnc4C)cc3)C(C)(C)C)n2)nnc1Nc1nc2cccnc2s1 [I-448],100 to 1000 nM,> 10000 nM,–

# Now from value to molecule, other results behind:
"IC50 (MOLT-4 cells; MOLT-4, 72 h)",SMILES,IC50 (Caki-2 cells),IC50 (MOLT-4 cells; 72 h)
100 to 1000 nM,Cc1ncsc1-c1ccc(CNC(=O)[C@@H]2C[C@@H](O)CN2C(=O)[C@@H](NC(=O)C2(F)CC2)C(C)(C)C)c(OCCCCCCN(C)C(=O)c2nc(N3CCc4cccc(C(=O)Nc5nc6ccccc6s5)c4C3)ccc2-c2cnn(CC3CCCCC3)c2C)c1 [I-168],> 10000 nM,–
1000 to 3000 nM,Cc1cc(N(C)c2ccc(-c3cnn(CC4CCCC4)c3C)c(C(=O)NS(=O)(=O)c3ccc(N4CCC(C(=O)N[C@H](C(=O)N5C[C@H](O)C[C@H]5C(=O)N[C@@H](C)c5ccc(-c6scnc6C)cc5)C(C)(C)C)CC4)cc3)n2)nnc1Nc1nc2ccccc2s1 [I-441],> 10000 nM,–
> 3000 nM,Cc1ccc(NC(=O)c2cccc3c2CN(c2ccc(-c4cnn(CC5CCCCC5)c4C)c(C(=O)NS(=O)(=O)CCCCCC(=O)N[C@H](C(=O)N4C[C@H](O)C[C@H]4C(=O)N[C@@H](C)c4ccc(-c5scnc5C)cc4)C(C)(C)C)n2)CC3)nc1 [I-458],> 10000 nM,–
100 to 1000 nM,Cc1ncsc1-c1ccc([C@H](C)NC(=O)[C@@H]2C[C@@H](O)CN2C(=O)[C@@H](NC(=O)CCCCCS(=O)(=O)NC(=O)c2nc(N3CCc4cccc(C(=O)NCc5cnco5)c4C3)ccc2-c2cnn(CC3CCCCC3)c2C)C(C)(C)C)cc1 [I-461],> 10000 nM,–
100 to 1000 nM,Cc1csc(NC(=O)c2cccc3c2CN(c2ccc(-c4cnn(CC5CCCCC5)c4C)c(C(=O)NS(=O)(=O)CCCCCC(=O)N[C@H](C(=O)N4C[C@H](O)C[C@H]4C(=O)N[C@@H](C)c4ccc(-c5scnc5C)cc4)C(C)(C)C)n2)CC3)n1 [I-462],> 10000 nM,–
